Measured values as given in patent US9023861B2, “Anticancer combination of artemisinin-based drugs and other chemotherapeutic agents” (Sigma-Tau Industrie Farmaceutiche Riunite, S.p.A., priority 2009, dated 2015).

What was measured:
[1] = tested on: SW620; assay: Anti-proliferative activity, sulphorodamine B test; assay type: cell-based; settings: Homo sapiens, SW-620, 24 h exposure, 48 h recovery
Method: (§1) The biological activity of DHA and ART on tumour cells survival was evaluated. The latter were seeded in 96-well tissue culture plates at approximately 10% confluence and were allowed to attach and recover for at least 24 h before being exposed to DHA or ART for 24 h at 37° C. They were then washed to remove DHA and ART and left to recover for 48 hours in medium culture. The medium culture was then removed and cells were washed three times with PBS. The plates were then incubated for on ice for 1 hour with 200 μl of PBS and 50 μl of cold 80% TCA before being washed with distilled water, dried on paper and finally at 40° C. for 5 minutes. 200 μl of 0.4% sulphorodamine B in 1% acetic acid were added and the incubation was prolonged for 30 minutes. Sulphorodamine B was removed, and the plates were washed 3 times with 1% acetic acid. They were finally dried on paper followed by standing at 40° C. for 5 minutes. Then 200 μl Tris 10 mM were added, the plates were kept under stirring for 20 minutes. Cell survival was determined as optical density at 540 nm by means of a Multiskan spectrofluorimeter. The amount of cells killed was expressed as the percentage decrease in sulphorodamine B binding compared to control cultures. IC50 were generated with their standard deviations by the ALLFIT program.

[2] = tested on: HT29; assay: Anti-proliferative activity, sulphorodamine B test; assay type: cell-based; settings: Homo sapiens, HT-29, 24 h exposure, 48 h recovery
Method: as §1

[3] = tested on: HCT116; assay: Anti-proliferative activity, sulphorodamine B test; assay type: cell-based; settings: Homo sapiens, HCT-116, 24 h exposure, 48 h recovery
Method: as §1

[4] = tested on: A2780; assay: Anti-proliferative activity, sulphorodamine B test; assay type: cell-based; settings: Homo sapiens, 24 h exposure, 48 h recovery
Method: as §1

[5] = tested on: MCF-7/Dx MDR; assay: Anti-proliferative activity, sulphorodamine B test; assay type: cell-based
Method: as §1

[6] = tested on: NCI-H460; assay: Anti-proliferative activity, sulphorodamine B test; assay type: cell-based; settings: Homo sapiens, 24 h exposure, 48 h recovery
Method: as §1

[7] = tested on: LoVo; assay: Anti-proliferative activity, sulphorodamine B test; assay type: cell-based; settings: Homo sapiens, 24 h exposure, 48 h recovery
Method: as §1

[8] = tested on: MCF-7; assay: Anti-proliferative activity, sulphorodamine B test; assay type: cell-based; settings: Homo sapiens, MCF7, 24 h exposure, 48 h recovery
Method: as §1

[9] = tested on: LoVo/Dx MDR; assay: Anti-proliferative activity, sulphorodamine B test; assay type: cell-based; settings: LoVo/Dx MDR; 24 h exposure, 48 h recovery
Method: as §1

[10] = tested on: NCI-H460 non-small cell lung carcinoma; assay: In vivo antitumor activity, s.c. xenograft in CD1 nude mice; settings: DHA 200 mg/kg p.o., AZD2281 100 mg/kg i.p., qdx5/wx3w
Method: NCI-H460 non-small cell lung carcinoma cells were inoculated subcutaneously (s.c.) in the right flank of CD1 nude mice (3×10^6/0.1 ml of Medium 199). Treatments started three days after tumour injection. Mice were subdivided (10 mice/group) in the following experimental groups:
(§2) a) Vehicle (DMSO 10%) 10 ml/kg, i.p.;
b) DHA 200 mg/kg, p.o. qdx5/wx3w;
d) AZD2281+DHA (doses and schedules as above).
For the latter experiment DHA was administered immediately before AZD2281.
To evaluate the antitumour activity, tumour diameters were measured with a Vernier calliper according to the formula TV=d^2×D/2 where d and D are the shortest and longest diameters, respectively.
When tumours reached a volume of about 1500 mm^3, mice were sacrificed by cervical dislocation. The efficacy of the drug was assessed as the tumour volume inhibition according to the formula reported underneath: […]
Body weight recording was carried out to evaluate body weight loss as calculated in the equation underneath: […]
Wherein BW day x corresponds to the mean weight at day x of the experiment meanwhile BW day 1 corresponds to the mean weight at the first day of the experiment.

[11] = tested on: HCT116 colon cancer cells; assay: In vivo antitumour activity, s.c. xenograft in CD1 nude mice; settings: DHA 200 mg/kg p.o., AZD2281 100 mg/kg i.p., qdx5/wx4w
Method: HCT116 colon cancer cells were inoculated subcutaneously (s.c.) in the right flank of CD1 nude mice (5×10^6/0.1 ml of Medium 199). Treatments started three days after tumour injection. Mice were subdivided (8 mice/group) in the following experimental groups:
as §2
b) DHA 200 mg/kg, p.o. qdx5/wx4w;
d) AZD2281+DHA (doses and schedules as above);
e) ABT-888 50 mg/kg, i.p. qdx5/wx4w;
f) ABT-888+DHA (doses and schedules as above).
DHA was administered immediately before AZD2281 or ABT-888.
The antitumour activity was evaluated according to the protocol reported hereinabove in example 3 when tumours reached a volume of about 500 mm^3.
Body weight recording was carried out to evaluate body weight loss according to the protocol reported hereinabove in example 3.

## C[C@H]1[C@@H](O)O[C@@H]2O[C@@]3(C)CC[C@H]4[C@H](C)CC[C@@H]1[C@@]24OO3 [DHA, dihydroartemisinin]
[1]
  IC50: 1800 ± 100 nM
[2]
  IC50: 5800 ± 500 nM
[3]
  IC50: 370 ± 80 nM
[4]
  IC50: 230 ± 20 nM
[5]; MCF7/DX, MCF-7/Dx MDR, 24 h exposure, 48 h recovery
  IC50: 970 ± 300 nM
[5]; MCF-7/Dx MDR versus MCF-7
  resistance index: 0.92
[6]
  IC50: 8160 ± 500 nM
[7]
  IC50: 2570 ± 800 nM
[8]
  IC50: 1050 ± 80 nM
[9]
  IC50: 1180 ± 300 nM
[10]; NCI-H460 xenograft mice
  tolerability (body weight loss during the treatment): well-tolerated
[10]; body weight loss, NCI-H460 xenograft, CD1 nude mice
  BWL %: 0%
[10]; tumour volume inhibition, NCI-H460 xenograft, CD1 nude mice
  TVI %: 3%
[10]; tumour volume, NCI-H460 xenograft, CD1 nude mice, sacrifice at about 1500 mm^3
  TV ± SE: 1575 ± 191
[11]; HCT116 xenograft mice, ABT-888 50 mg/kg
  tolerability (body weight loss during the treatment): well-tolerated
[11]; body weight loss, HCT116 xenograft, CD1 nude mice, ABT-888 50 mg/kg i.p.
  BWL %: 1%
[11]; tumour volume inhibition, HCT116 xenograft, CD1 nude mice, ABT-888 50 mg/kg i.p.
  TVI %: 0%
[11]; tumour volume, HCT116 xenograft, CD1 nude mice, ABT-888 50 mg/kg i.p., evaluated at about 500 mm^3
  TV ± SE: 447 ± 39
